Measurements as given in ChEMBL document CHEMBL1201862, “PubChem BioAssay data set” (2004).
The source made the active and inactive calls.

How the values were obtained:
[1] = target: Glucose-6-phosphate 1-dehydrogenase (Homo sapiens, UniProt P11413); experiment: human G6PD enzyme inhibitors, dose response, selectivity assay for P. falciparum G6PD inhibitor project, biochemical, fluorescence (AID 504792); type: functional
[2] = target: Eukaryotic translation initiation factor 4E (Mus musculus, UniProt P63073); experiment: eIF4E–eIF4G protein interaction inhibitors, dose response, biochemical, TR-FRET (AID 855); type: functional;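 also: potency for disrupting eIF4E binding to eIF4GI seen as loss of FRET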
Sequence of Eukaryotic translation initiation factor 4E (P63073 whole entry): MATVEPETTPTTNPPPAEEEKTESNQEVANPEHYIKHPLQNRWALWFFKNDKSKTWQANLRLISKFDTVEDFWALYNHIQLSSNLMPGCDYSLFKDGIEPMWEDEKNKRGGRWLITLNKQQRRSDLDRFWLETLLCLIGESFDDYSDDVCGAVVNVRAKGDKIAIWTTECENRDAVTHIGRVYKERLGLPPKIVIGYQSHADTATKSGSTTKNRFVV

Vero = Vero cell cytotoxicity, cytotoxicity control for flavivirus capping enzyme inhibitors (AID 588742); type: functional; details: Chlorocebus sabaeus
Genome polyprotein = Genome polyprotein (dengue virus type 2, UniProt P29990); experiment: Dengue-2 NS5 methyltransferase inhibitors, primary screen, biochemical, confirmation dose response (AID 588689); type: functional
Sequence of Genome polyprotein (P29990 2492-3391 limits assumed): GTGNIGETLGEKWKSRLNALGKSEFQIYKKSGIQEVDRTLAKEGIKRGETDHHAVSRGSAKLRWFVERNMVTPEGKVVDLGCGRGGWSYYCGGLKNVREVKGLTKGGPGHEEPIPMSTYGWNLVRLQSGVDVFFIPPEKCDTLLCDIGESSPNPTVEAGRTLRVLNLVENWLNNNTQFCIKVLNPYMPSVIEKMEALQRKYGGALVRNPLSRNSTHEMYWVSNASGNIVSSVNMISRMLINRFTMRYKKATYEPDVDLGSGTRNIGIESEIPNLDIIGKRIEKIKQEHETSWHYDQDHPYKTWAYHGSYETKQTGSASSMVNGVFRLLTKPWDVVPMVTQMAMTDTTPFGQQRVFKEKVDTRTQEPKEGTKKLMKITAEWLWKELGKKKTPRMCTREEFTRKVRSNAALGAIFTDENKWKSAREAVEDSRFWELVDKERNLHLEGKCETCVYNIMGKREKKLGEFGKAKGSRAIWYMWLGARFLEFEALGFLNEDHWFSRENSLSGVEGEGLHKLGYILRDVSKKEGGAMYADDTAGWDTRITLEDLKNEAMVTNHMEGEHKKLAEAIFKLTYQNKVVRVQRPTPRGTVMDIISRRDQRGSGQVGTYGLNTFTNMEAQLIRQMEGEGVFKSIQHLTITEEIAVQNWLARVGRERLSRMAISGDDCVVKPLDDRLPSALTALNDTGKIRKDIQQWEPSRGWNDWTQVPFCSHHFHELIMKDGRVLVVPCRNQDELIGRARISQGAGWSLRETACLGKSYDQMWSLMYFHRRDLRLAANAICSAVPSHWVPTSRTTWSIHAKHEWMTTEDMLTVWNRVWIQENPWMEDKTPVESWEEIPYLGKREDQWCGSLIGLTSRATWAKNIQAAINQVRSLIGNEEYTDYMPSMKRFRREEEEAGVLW

[3] = Luminescence Cell-Based Dose Confirmation HTS to Identify Activators of 5'UTR Stem-Loop Driven Alpha-Synuclein mRNA Translation in H4 Neuroglioblastoma Cells. [Related pubchem assays: 1829 (Project Summary), 1814 (Primary HTS)]; type: functional
[4] = Luminescence Cell-Based Dose Response HTS to Identify Activators of Luciferase Translation or Activity in H4 […] Cells. [Related pubchem assays: 1829 (Project Summary), 1814 (Primary HTS)]; type: functional
H4 = experiment: Luminescence Cell-Based Dose Response HTS to Identify Activators of 5'UTR Stem-Loop Driven Prion Protein mRNA Translation in H4 Neuroglioblastoma Cells. [Related pubchem assays: 1829 (Project Summary), 1814 (Primary HTS)]; type: functional; details: Homo sapiens
[5] = target: Glyceraldehyde-3-phosphate dehydrogenase (Homo sapiens, UniProt P04406)
Sequence of Glyceraldehyde-3-phosphate dehydrogenase (P04406 whole entry): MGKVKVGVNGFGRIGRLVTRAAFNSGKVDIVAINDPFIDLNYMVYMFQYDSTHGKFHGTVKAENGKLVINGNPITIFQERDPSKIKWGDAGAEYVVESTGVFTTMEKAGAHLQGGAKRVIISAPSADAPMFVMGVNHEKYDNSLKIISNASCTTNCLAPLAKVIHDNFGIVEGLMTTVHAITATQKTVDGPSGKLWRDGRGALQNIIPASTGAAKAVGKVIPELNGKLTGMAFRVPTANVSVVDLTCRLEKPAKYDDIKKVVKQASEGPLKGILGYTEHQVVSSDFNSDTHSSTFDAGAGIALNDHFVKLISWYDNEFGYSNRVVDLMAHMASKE

[6] = THP-1 cell cytotoxicity, dose response, cytotoxicity control for non-replicating M. tuberculosis project (AID 489025); type: functional
[7] = HepG2 cell cytotoxicity, dose response, cytotoxicity control for non-replicating M. tuberculosis project (AID 489018); type: functional; details: Mycobacterium tuberculosis
[8] = Vero E6 cell cytotoxicity, dose response, cytotoxicity control for non-replicating M. tuberculosis project, secondary assay (AID 492998); type: functional, VeroE6; details: Vero C1008
cells [9] = type: functional
[10] = target: T1, DNA repair protein RAD52 homolog (Homo sapiens, UniProt P43351); type: functional, biochemical
T1 sequence (P43351 whole entry): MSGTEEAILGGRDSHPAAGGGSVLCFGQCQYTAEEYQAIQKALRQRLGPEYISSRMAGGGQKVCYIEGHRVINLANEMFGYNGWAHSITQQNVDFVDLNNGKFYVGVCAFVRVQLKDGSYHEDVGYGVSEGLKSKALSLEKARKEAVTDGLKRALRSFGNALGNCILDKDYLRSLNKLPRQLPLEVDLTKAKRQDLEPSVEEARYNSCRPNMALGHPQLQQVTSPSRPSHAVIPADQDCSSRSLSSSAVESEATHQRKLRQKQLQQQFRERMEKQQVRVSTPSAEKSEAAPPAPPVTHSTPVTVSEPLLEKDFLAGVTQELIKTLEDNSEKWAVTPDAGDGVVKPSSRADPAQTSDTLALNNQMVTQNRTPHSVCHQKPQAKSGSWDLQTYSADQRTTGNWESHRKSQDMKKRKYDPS

Cytochrome P450 1A2 = target: T2, Cytochrome P450 1A2 (Homo sapiens, UniProt P05177);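 also: PubChem cytochrome P450 panel assay, CYP1A2 panel member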
T2 sequence (P05177 whole entry): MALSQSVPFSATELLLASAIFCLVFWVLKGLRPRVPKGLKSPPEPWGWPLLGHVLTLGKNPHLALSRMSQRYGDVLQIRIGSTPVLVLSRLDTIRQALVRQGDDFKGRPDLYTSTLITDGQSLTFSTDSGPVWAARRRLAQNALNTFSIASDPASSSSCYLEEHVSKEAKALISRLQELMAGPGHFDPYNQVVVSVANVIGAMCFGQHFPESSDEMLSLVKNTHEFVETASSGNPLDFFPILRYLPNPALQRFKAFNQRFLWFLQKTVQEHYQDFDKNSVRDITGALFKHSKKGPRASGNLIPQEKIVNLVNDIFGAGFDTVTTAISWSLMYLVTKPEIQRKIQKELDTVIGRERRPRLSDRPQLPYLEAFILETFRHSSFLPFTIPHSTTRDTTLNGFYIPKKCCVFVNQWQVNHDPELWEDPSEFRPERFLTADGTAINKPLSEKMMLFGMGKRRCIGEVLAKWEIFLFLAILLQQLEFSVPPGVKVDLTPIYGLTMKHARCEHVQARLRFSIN

Cytochrome P450 3A4 = Cytochrome P450 3A4 (Homo sapiens, UniProt P08684);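 also: CYP3A4 tested as one member of a cytochrome P450 panel screen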
Sequence of Cytochrome P450 3A4 (P08684 whole entry): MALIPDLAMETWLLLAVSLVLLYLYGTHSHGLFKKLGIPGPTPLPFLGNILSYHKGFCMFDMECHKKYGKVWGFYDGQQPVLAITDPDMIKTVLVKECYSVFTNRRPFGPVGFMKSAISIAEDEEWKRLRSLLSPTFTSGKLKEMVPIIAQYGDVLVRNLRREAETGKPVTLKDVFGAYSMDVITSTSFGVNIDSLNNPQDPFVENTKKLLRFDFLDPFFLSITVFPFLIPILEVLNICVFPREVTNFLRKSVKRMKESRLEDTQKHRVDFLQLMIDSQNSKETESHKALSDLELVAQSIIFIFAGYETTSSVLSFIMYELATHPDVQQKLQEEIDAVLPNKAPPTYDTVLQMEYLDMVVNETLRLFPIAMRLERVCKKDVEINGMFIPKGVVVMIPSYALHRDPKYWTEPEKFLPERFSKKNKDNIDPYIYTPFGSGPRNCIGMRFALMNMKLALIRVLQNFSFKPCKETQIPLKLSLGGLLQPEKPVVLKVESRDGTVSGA

[11] = NIH-3T3 fibroblast cytotoxicity, dose response, cytotoxicity control, cell-based, fluorescence, Alamar Blue, secondary assay (AID 2327); type: functional;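 also: NIH-3T3 mouse fibroblasts cultured with fluconazole at 8 µg/mL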
Aminopeptidase N = target: T3, Aminopeptidase N (Plasmodium falciparum FcB1/Columbia, UniProt O96935); experiment: P. falciparum M1AAP inhibitors, biochemical, fluorogenic H-Leu-NHMec substrate, 1536-well (AID 1445); set-up: species or system Plasmodium falciparum 3D7, 3D7
T3 sequence (O96935 whole entry): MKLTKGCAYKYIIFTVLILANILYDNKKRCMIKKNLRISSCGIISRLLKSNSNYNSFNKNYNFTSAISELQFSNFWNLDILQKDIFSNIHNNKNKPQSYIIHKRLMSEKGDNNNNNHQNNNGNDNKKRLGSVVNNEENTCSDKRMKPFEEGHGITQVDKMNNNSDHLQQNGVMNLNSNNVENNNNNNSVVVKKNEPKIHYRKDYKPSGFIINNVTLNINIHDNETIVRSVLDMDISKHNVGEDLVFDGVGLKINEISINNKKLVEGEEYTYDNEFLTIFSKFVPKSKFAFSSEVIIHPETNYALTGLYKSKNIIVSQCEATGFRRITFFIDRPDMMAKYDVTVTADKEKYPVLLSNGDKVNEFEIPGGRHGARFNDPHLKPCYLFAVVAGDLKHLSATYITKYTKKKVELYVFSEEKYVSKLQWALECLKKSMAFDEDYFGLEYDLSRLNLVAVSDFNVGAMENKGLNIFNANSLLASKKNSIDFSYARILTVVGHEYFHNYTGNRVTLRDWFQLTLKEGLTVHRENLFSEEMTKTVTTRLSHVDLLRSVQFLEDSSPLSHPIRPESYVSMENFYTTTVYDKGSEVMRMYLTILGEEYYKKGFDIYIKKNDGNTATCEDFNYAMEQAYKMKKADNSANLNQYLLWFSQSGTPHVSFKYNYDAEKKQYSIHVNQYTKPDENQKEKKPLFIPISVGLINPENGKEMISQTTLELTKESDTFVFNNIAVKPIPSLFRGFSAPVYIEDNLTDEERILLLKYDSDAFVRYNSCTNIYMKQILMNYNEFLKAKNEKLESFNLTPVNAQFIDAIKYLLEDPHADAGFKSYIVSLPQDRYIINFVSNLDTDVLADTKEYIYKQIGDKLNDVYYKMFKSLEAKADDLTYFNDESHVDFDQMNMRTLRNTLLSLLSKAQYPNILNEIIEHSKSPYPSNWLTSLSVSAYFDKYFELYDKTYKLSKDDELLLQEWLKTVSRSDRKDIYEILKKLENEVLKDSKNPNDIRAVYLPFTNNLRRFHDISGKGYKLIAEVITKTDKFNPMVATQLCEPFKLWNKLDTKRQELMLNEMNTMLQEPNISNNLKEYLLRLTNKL

[12] = test system: Streptococcus sp. 'group A'; experiment: growth inhibition of control SK(-) GAS strain, dose response, counter-screen for streptokinase expression inhibitor project, luminescence, kanamycin, BacTiterGlo, confirmation (AID 1900); type: functional, organism-based
cells [13] = type: functional, cell-based
[14] = C. albicans growth with fluconazole, confirmation, fluorescence, retest (AID 2467); type: functional, cell-based
cells [15] = type: functional, cell-based; remark: listed apart in the source
Streptococcus = experiment: Group A Streptococcus viability loss, dose response, counter-screen for streptokinase expression inhibitor project, luminescence, BacTiterGlo (AID 1915); type: functional, organism-based;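 also: potency for reduction of bacterial viability or growth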
[16] = target: T4, Microphthalmia-associated transcription factor (Homo sapiens, UniProt O75030); experiment: TRPM1 promoter luciferase signal decrease, dose response, MITF inhibitor project, cell-based, SK-MEL-5, cherry-picked, set 3 (AID 493073); type: functional
T4 sequence (O75030 whole entry): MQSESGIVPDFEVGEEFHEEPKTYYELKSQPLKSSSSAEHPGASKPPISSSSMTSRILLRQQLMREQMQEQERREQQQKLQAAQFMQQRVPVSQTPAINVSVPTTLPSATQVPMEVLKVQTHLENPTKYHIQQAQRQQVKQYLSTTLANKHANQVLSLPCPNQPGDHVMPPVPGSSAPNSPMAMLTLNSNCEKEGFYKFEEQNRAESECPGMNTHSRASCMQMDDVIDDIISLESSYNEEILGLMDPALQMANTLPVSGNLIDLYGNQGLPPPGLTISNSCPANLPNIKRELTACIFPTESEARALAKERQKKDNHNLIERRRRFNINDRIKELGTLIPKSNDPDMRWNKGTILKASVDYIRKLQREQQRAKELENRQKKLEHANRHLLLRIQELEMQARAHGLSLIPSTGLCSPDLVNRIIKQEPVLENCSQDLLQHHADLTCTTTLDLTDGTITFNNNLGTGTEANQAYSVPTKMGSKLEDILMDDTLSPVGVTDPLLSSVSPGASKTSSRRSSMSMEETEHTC

INS1 = experiment: beta cell apoptosis inhibitors, cytokine rescue, dose response, luminescence, retest (AID 449756); type: functional, cell-based; details: Rattus norvegicus;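 also: cell death triggered by IL-1 beta plus TNF-alpha plus IFN-gamma mixture; protective hits raise ATP signal compared with cytokine alone wells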
[17] = target: T5, Alkaline phosphatase, tissue-nonspecific isozyme (Homo sapiens, UniProt P05186); experiment: human TNAP enzyme inhibitors, SAR follow-up, biochemical, luminescent, dose response (AID 1056)
T5 sequence (P05186 whole entry): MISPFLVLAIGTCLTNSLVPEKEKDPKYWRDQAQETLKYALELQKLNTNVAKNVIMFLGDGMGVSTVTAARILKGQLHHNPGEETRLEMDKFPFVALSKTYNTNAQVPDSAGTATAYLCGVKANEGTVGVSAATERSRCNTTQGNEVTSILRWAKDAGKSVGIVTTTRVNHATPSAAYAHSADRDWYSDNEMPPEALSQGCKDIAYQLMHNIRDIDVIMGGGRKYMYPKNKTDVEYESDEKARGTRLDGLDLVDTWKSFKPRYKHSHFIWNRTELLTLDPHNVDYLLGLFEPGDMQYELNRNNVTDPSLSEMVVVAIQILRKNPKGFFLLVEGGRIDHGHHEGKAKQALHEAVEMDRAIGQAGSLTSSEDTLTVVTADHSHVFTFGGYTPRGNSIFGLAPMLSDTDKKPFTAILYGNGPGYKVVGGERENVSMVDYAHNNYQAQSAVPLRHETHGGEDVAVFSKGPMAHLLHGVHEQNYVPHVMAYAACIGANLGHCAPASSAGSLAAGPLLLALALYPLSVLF

[18] = target: T6, Rac GTPase-activating protein 1 (Homo sapiens, UniProt Q9H0H5); experiment: MgcRacGAP GTPase-activating activity inhibitors, confirmation, biochemical, ADP Hunter fluorescence, primary and confirmatory (AID 624330); type: functional
T6 sequence (Q9H0H5 whole entry): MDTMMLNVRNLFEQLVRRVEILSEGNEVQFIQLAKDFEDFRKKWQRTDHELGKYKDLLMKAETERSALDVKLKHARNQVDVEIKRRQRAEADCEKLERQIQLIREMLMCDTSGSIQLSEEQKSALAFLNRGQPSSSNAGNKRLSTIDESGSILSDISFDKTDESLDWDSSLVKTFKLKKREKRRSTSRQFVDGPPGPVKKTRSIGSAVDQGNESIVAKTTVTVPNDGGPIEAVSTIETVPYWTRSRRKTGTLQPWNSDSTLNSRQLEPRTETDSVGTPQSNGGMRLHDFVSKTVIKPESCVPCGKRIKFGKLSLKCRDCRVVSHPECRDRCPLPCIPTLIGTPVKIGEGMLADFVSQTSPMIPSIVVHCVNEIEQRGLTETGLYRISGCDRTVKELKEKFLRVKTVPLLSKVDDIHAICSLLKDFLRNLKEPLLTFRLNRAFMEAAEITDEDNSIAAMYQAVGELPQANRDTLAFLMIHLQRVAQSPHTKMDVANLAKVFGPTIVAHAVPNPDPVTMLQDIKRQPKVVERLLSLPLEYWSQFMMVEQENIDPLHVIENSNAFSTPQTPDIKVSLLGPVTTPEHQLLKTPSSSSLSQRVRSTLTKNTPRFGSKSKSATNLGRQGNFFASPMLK

Sequence of Glucose-6-phosphate 1-dehydrogenase (P11413 whole entry): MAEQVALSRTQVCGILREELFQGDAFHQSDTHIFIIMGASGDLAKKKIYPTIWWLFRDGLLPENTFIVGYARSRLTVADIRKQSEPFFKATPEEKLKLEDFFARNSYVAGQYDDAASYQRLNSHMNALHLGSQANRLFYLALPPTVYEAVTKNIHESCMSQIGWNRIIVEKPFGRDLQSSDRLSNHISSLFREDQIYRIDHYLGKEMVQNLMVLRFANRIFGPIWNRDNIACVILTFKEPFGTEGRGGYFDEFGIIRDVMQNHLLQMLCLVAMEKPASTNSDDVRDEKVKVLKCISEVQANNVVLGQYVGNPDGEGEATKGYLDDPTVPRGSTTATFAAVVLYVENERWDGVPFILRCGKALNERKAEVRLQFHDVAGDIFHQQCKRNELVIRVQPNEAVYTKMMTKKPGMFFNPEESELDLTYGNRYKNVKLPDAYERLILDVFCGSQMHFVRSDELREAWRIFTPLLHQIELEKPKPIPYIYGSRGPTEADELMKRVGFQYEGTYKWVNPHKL

Compound: COc1cc(CNc2ccc(N3CCCC3)cc2)ccc1OCc1ccccc1F
- IC50 [1]: > 80 µM (inactive)
- IC50 [2]: > 64 µM (inactive)
- CC50 (Vero): > 40 µM (active)
- IC50 (Genome polyprotein): 54.2 µM (active)

Compound: O=C(CSc1nnc2ccc3ccccc3n12)N1CCOCC1
- EC50 [3]: > 120 µM (not active)
- EC50 [4]: 14.6 µM (active)
- EC50 (H4): 14.4 µM (inconclusive)

Compound: Cc1cc(C(=O)Nc2ccc(O)c(C(=O)O)c2)c(C)o1
- IC50 [5]: > 100 µM (not active)

Compound: CCc1nccn1CCC(=O)N1CCCC(N2CCN(c3cccc(Cl)c3)CC2)C1 (stereo unspecified)
- EC50 [3]: > 120 µM (not active)
- EC50 [4]: 25.5 µM (active)
- EC50 (H4): 16.3 µM (active)

Compound: O=C1C(Cl)=C(N2CCN(Cc3ccccc3)CC2)C(=O)N1c1ccc(C(F)(F)F)cc1
- IC50 [5]: > 50 µM (inconclusive)

Compound: CN(C)CC/C=C1\c2ccccc2Sc2cc(F)c(Cl)cc21
- CC50 [6]: 17 µM (active)
- CC50 [7]: > 20 µM (active)
- CC50 [8]: > 20 µM (active)
- IC50 (cells [9]): 20.8 µM (active)
- AC50 [10]: 15.1 µM (active)

Compound: Cc1ccc(Oc2ncc(CN3CCOCC3)s2)cc1
- EC50 [3]: 13.1 µM (active)
- EC50 [4]: 13.1 µM (active)
- EC50 (H4): 40.4 µM (active)
- AC50 (Cytochrome P450 1A2): 22.4 µM (inconclusive)
- AC50 (Cytochrome P450 3A4): 20 µM (inconclusive)

Compound: Cc1nc(C)c(C(=O)N/N=C/c2cc(Br)ccc2O)s1
- EC50 [11]: > 150 µM (inactive)
- IC50 (Aminopeptidase N): 12.9 µM (active)
- EC50 [12]: 2.35 µM (active)
- EC50 (cells [13]): 99.3 µM (active)
- EC50 [14]: 1.34 µM (active)
- EC50 (cells [15]): > 350 µM (not active)
- EC50 (Streptococcus): 8.73 µM (active)
- AC50 [16]: 3.66 µM (active)
- AC50 (INS1): 2.63 µM (active)

Compound: C/C(=N\NC(=O)c1nc2ccccn2c1C)c1ccco1
- EC50 [3]: 14.4 µM (active)
- EC50 [4]: > 120 µM (not active)
- EC50 (H4): 15.7 µM (active)

Compound: Cc1cc(C)nc(SCC(=O)c2ccc(O)c(O)c2)n1
- IC50 [17]: 5.76 µM (active)
- IC50 [18]: 30.6 µM (active)
